In US10940216B2, “Cyclic peptides with enhanced nerve-binding selectively, nanoparticles bound with said cyclic peptides, and use of same for real-time in vivo nerve tissue imaging” (Memorial Sloan Kettering Cancer Center, priority 2014, dated 2021):
Ends that are not written are not given here.

Assays:
[1] = Characterization of NBP-Cy5 conjugates and linear NBP-C′ dots by fluorescence correlation spectroscopy (FCS); assay type: physicochemical
Description: Similarly, cyclic peptide(s) can be bound to nanoparticles for improved quantum enhancement and FCS brightness over the non-bound cyclic peptide.
Measurements were determined from fluorescence correlation spectroscopy (FCS).
The linear nerve binding polypeptide (NBP) NP41 was incorporated onto C′ dots using a PEG linker moiety.

[2] = system: sciatic nerve; experiment: In vivo optical imaging of sciatic nerve and adjacent muscle after iv injection of peptide-dye conjugates; conditions: nude mouse; for fluorescence signal at 30 min as percentage of post-injection/initial signal: 150 nmole iv
Description: FIGS. 13A-13E show in vivo time-dependent uptake from sciatic nerve and muscle post-iv injection of 17 AA cyclic peptide-dye conjugates using optical imaging. 17 AA cyclic peptide-dye conjugates (Cy5 labeled) were injected intravenously (400 nmole) into the tail veins of nude mouse prior to surgical exposure and imaging of sciatic nerves and adjacent muscle using a Zeiss Lumar stereomicroscope (0.8× objective) with fluorescence imaging capabilities. Pre- and serial post injection (p.i.) images (bright field, fluorescent) were acquired at 8 times points from 15 min to 240 min p.i. Bars indicate mean+/−standard deviation. N=5 per group. Each replicate is from one biological experiment, quantified with five independent fields of view. Region of interest (ROI) analysis was performed over nerve and muscle regions to assess time-dependent signal changes. FIGS. 13A-13E show the absolute and relative fluorescence signal (e.g., percentage of the initial fluorescence signal acquired at 15 min p.i.) of nerves (FIGS. 13A and […]) and adjacent muscle (FIGS. 13B and 13D), respectively.
FIGS. 14A and 14B show in vivo time-dependent uptake from sciatic nerve and muscle post-iv injection of 17 AA linear peptide-dye conjugates using optical imaging. 17 AA linear peptide-dye conjugates (Cy5 labeled) were injected intravenously (150 nmole) into the tail veins of nude mouse prior to surgical exposure and imaging of sciatic nerves and adjacent muscle using a Zeiss Lumar stereomicroscope (0.8× objective) with fluorescence imaging capabilities. Pre- and serial post injection (p.i.) images (bright field, fluorescent) were acquired at 6 times points (15 min-150 min) p.i. Bars indicate mean+/−standard deviation. N=5 per group.
FIGS. 16A-16E show in vivo time-dependent uptake from sciatic nerve and muscle post-iv injection of 17 AA cyclic peptide-dye conjugates using optical imaging. 17 AA cyclic peptide-dye conjugates (Cy5 labeled) were injected intravenously (150 nmole) into the tail veins of nude mouse prior to surgical exposure and imaging of sciatic nerves and adjacent muscle using a Zeiss Lumar stereomicroscope (0.8× objective) with fluorescence imaging capabilities. Pre- and serial post injection (p.i.) images (bright field, fluorescent) were acquired at 6 time points (15 min-150 min) p.i. Bars indicate mean+/−standard deviation. N=5 per group. Each replicate is from one biological experiment, quantified with five independent fields of view. Region of interest (ROI) analysis was performed over nerve and muscle regions to assess time-dependent signal changes. FIGS. 16A-16D show the absolute and relative fluorescence signal (percentage of the initial fluorescence signal acquired at 15 min p.i.) of nerves (FIGS. 16A and 16C) and adjacent muscle (FIGS. 16B and 16D), respectively.

Row | Molecule | # of Cy5 per particles [1] | Hydrodynamic Diameter [1] | PCS Brightness [1] | Quantum Enhancement [1] | # of NBP per particles [1] | fluorescence signal at 30 min as percentage of post-injection/initial signal ([2]; listed as 17 AA linear peptide-dye conjugates) | fluorescence signal at 30 min as percentage of post-injection/initial signal ([2]; listed as linear peptide) | duration of detectable signal after administration (in words) ([2]; iv) | nerve-to-muscle or contrast ratios over time (in words) ([2]; iv, listed as linear peptide) | nerve-to-muscle or contrast ratios over time (in words) ([2]; iv, listed as linear peptide-dye conjugate)
1 | CCN1/C(=C/C=C/C=C/C2=[N+](CCCCCC(=O)O)c3ccc(S(=O)(=O)O)cc3C2(C)C)C(C)(C)c2cc(S(=O)(=O)[O-])ccc21 [Cy5] | 1 | 1.4 nm | 9.2 kHz | 1 | – | – | – | – | – | –
2 | Ac-SHSNTQTLAKAPEHTGC (also: Cy5 label, site not given here) [LinearNBP-Cy5] | 1 | 2.4 nm | 8.9 kHz | 0.9 | 1 | about 15% | 10% | barely perceptible thereafter | does not demonstrate as high ratios | roughly equivalent over the first 30 min
